Reference: US4341792A, “Heterobicyclic keto- and amino-acids, esters and amides” (Pfizer Inc., priority 1979, dated 1982)

How the values were obtained:
[1] = tested on: pyruvate dehydrogenase enzyme (PDH); experiment: Increase in proportion of active form of pyruvate dehydrogenase (PDHa/PDHt) in hearts of fat-fed rats in vivo; details: fat-fed rat heart
Description: (2) increase the proportion of the active form of the enzyme pyruvate dehydrogenase (PDH) in organs of animals (e.g., rat heart) in vivo; and The ability of the compounds of this invention to increase the proportion of the active form of the pyruvate dehydrogenase enzyme has been measured in the following test: Rats fed on a high fat diet as in the previous test, are treated either with placebo or with the compound of formula (I) or (II) by sub-cutaneous or intravenous injection or by oral administration. After 11/2 hours the rat hearts are removed and homogenized under conditions which minimize changes in the proportion of the pyruvate dehydrogenase enzyme (PDH) which is present in the active form, as described by Whitehouse and Randle, Biochem, J., 134, 651 (1973). The total amount of the enzyme present (PDHt) and the amount which is present in the active form (PDHa) are assessed by a method similar to that described by Taylor et al., J. Biol. Chem., 248, 73 (1973). The fat-feeding process is found to depress the ratio […] from a normal value of about 0.7 to a value in the range from 0.1 to 0.3. Treatment of fat-fed rats with the compounds of formula (I) or (II) parenterally increases this ratio in a dose-dependent manner. The increase in […] ration affected by certain of the compounds when administered by subcutaneous infection at the dosage indicated is shown in the following table: […]

[2] = tested on: diaphragm tissue from fat-fed rats (pyruvate oxidation); experiment: Pyruvate oxidation by diaphragm tissue from fat-fed rats in vitro (carbon-14 from labelled pyruvate into carbon dioxide); assay type: cell-based; details: fat-fed rat diaphragm, read-out: % Stimulation (pyruvate oxidation); for activation at 500 µM: concentration 0.5 m. mol.; for activation at 2000 µM: concentration 2 m. mol.; for activation at 1000 µM: concentration 1 m. mol.
Description: (1) increase the oxidation of glucose and/or pyruvate by isolated rat muscle preparations in vitro; The compounds of formulae (I) and (II) have been tested for their ability to increase the oxidation of glucose and/or pyruvate as follows: Diaphragm tissue is obtained from rats fed on a high fat diet similar to `Diet B` described by Zaragoza and Felber, Horm. Metab. Res., 2, 323 (1970). Pyruvate oxidation by such tissue is assessed by measurement of the rate of incorporation of carbon-14 from carbon-14-labelled pyruvate into carbon dioxide in vitro, as described by Bringold, Eur. J. Biochem., 26, 360 (1972). The rate of pyruvate oxidation is depressed by 50-75% compared with that by diaphragm tissue from rats fed on a normal diet. When the compounds of the invention are added to the medium, they are found to stimulate pyruvate oxidation by diaphragm tissue from fat-fed rats in a dose dependent manner.

[3] = 0.6 mmol/kg subcutaneous, placebo 0.12

SMILES: NC(=O)C(N)c1ccc2c(c1)CCO2 (racemic) [Example 6, DL-α-Amino-2,3-dihydro-5-benzo(b)furanylacetamide]
- PDHa/PDHt ratio [1, 3]: 0.46
- activation at 500 µM [2]: 29%

SMILES: COCCNC(=O)C(N)c1ccc2c(c1)CCO2.Cl (racemic) [Example 7, DL-N-(2-Methoxyethyl)-α-amino-2,3-dihydro-5-benzo(b)furanylacetamide Hydrochloride]
- PDHa/PDHt ratio [1, 3]: 0.47
- activation at 500 µM [2]: 23%

SMILES: NC(C(=O)O)c1ccc2occc2c1 (racemic) [Example 9, DL-2-[5-Benzo(b)furanyl]glycine]
- activation at 500 µM [2]: 42%

SMILES: NC(=O)C(N)c1ccc2occc2c1 (racemic) [Example 10, DL-2-[5-Benzo(b)furanyl]glycinamide]
- activation at 500 µM [2]: 46%

SMILES: NC(C(=O)O)c1ccc2c(c1)CCS2 (racemic) [Example 13, DL-2-[2,3-Dihydro-5-benzo(b)thienyl]glycine]
- activation at 500 µM [2]: 21%

SMILES: NC(=O)C(N)c1ccc2c(c1)CCS2 (racemic) [Example 15, DL-2-[2,3-Dihydro-5-benzo(b)thienyl]glycinamide]
- activation at 2000 µM [2]: 11%

SMILES: O=C(O)C(=O)c1ccc2c(c1)CCS2 [Example 2, 2,3-Dihydro-5-benzo(b)thienylglyoxylic Acid]
- PDHa/PDHt ratio ([1]; 1.2 mmol/kg subcutaneous, placebo 0.27): 0.48
- activation at 1000 µM [2]: 105%

SMILES: O=C(O)C(=O)c1ccc2c(c1)CCO2 [Example 3, 2,3-Dihydro-5-benzo(b)furanylglyoxylic Acid]
- PDHa/PDHt ratio ([1]; 0.3 mmol/kg subcutaneous, placebo 0.11): 0.21
- activation at 1000 µM [2]: 128%

SMILES: O=C(O)C(=O)c1ccc2c(c1)CCCO2 [Example 4, 6-Chromanylglyoxylic Acid]
- activation at 500 µM [2]: 69%

SMILES: O=C(O)C(=O)c1ccc2occc2c1 [Example 8, 5-Benzo(b)furanylglyoxlic Acid]
- activation at 500 µM [2]: 95%

SMILES: O=C(O)C(=O)c1ccc2oc(-c3ccccc3)cc2c1 [Example 11, 2-Phenyl-5-benzo(b)furanyl Glyoxylic Acid]
- PDHa/PDHt ratio ([1]; 0.3 mmol/kg subcutaneous, placebo 0.20): 0.26
- activation at 2000 µM [2]: 99%

SMILES: Cc1cc2cc(C(=O)C(=O)O)ccc2o1 [Example 12, 2-Methyl-5-benzo(b)furanylglyoxylic Acid]
- PDHa/PDHt ratio ([1]; 0.3 mmol/kg subcutaneous, placebo 0.12): 0.36
- activation at 500 µM [2]: 58%
